Measured values: ChEMBL document CHEMBL1671708, “Hydroxymethylnitrofurazone is active in a murine model of Chagas' disease” (Antimicrob Agents Chemother, 2010)
Activity calls are given as the source filed them. The calls are words filed in the database; no cut-off is given here.

Tests used:
Mus musculus [1] = assay: Toxicity in Trypanosoma cruzi Tulahuen infected in Swiss mouse assessed as changes in liver SGOT enzyme levels at 60 mg/kg/day, po for 6 days per week until completion of 60 compound doses administered 5 days post infection […]; format: organism-based; design: route oral; conditions: in vivo
Trypanosoma cruzi [2] = assay: (§1) Antimicrobial activity against Trypanosoma cruzi Tulahuen infected in Swiss mouse assessed as reduction in reduction in parasite induced histopathological changes in liver at 60 mg/kg/day, po for 6 days per week until completion of 60 compound doses administered 5 days post infection by hematoxylin-eosin staining; format: functional, organism-based
Trypanosoma cruzi [3] = assay: (§2) Antimicrobial activity against Trypanosoma cruzi Tulahuen infected in Swiss mouse assessed as reduction in parasite specific antibodies at 60 mg/kg/day, po for 6 days per week until completion of 60 compound doses administered 5 days post infection measured 180 days post dose by ELISA based serological study; format: functional; design: scale not given: the % may be the effect or the level left
Trypanosoma cruzi [4] = assay: as §2, with “45” for “180”; format: functional, organism-based
Trypanosoma cruzi [5] = assay: Antimicrobial activity against Trypanosoma cruzi Tulahuen infected in Swiss mouse assessed as mouse mortality at 60 mg/kg/day, po for 6 days per week until completion of 60 compound doses administered 5 days post infection; format: functional
Trypanosoma cruzi [6] = assay: Antimicrobial activity against Trypanosoma cruzi Tulahuen infected in Swiss mouse assessed as parasite DNA level at 60 mg/kg/day, po for 6 days per week until completion of 60 compound doses administered 5 days post infection measured 180 days post dose by PCR amplification method; format: functional
Trypanosoma cruzi [7] = assay: Antimicrobial activity against Trypanosoma cruzi Tulahuen infected in Swiss mouse assessed as reduction in blood parasite load at 60 mg/kg/day, po for 6 days per week until completion of 60 compound doses administered 5 days post infection; format: functional, organism-based
Trypanosoma cruzi [8] = assay: as §1, with “skeletal muscle” for “liver”; format: functional, organism-based
Trypanosoma cruzi [9] = assay: Antimicrobial activity against Trypanosoma cruzi Tulahuen infected in Swiss mouse assessed as parasite DNA level at 60 mg/kg/day, po for 6 days per week until completion of 60 compound doses administered 5 days post infection measured 30 days post dose by PCR amplification method; format: functional
Trypanosoma cruzi [10] = assay: as §1, with “at 150” for “at 60”; format: functional, organism-based
Trypanosoma cruzi [11] = assay: as §1, with “in skeletal muscle” for “in liver”, “at 150” for “at 60”; format: functional, organism-based
Trypanosoma cruzi [12] = assay: Antimicrobial activity against Trypanosoma cruzi Tulahuen infected in Swiss mouse assessed as parasite DNA level at 150 mg/kg/day, po for 6 days per week until completion of 60 compound doses administered 5 days post infection measured 30 days post dose by PCR amplification method; format: functional
Mus musculus [13] = assay: Toxicity in Trypanosoma cruzi Tulahuen infected in Swiss mouse assessed as changes in liver SGOT enzyme levels at 150 mg/kg/day, po for 6 days per week until completion of 60 compound doses administered 5 days post infection […]; format: organism-based; design: route oral; conditions: in vivo
Trypanosoma cruzi [14] = assay: as §2, with “at 150” for “at 60”, “measured 45” for “measured 180”; format: functional, organism-based
Trypanosoma cruzi [15] = assay: as §2, with “at 150” for “at 60”; format: functional; design: scale not given: the % may be the effect or the level left
Trypanosoma cruzi [16] = assay: Antimicrobial activity against Trypanosoma cruzi Tulahuen infected in Swiss mouse assessed as parasite DNA level at 150 mg/kg/day, po for 6 days per week until completion of 60 compound doses administered 5 days post infection measured 180 days post dose by PCR amplification method; format: functional
Trypanosoma cruzi [17] = assay: Antimicrobial activity against Trypanosoma cruzi Tulahuen infected in Swiss mouse assessed as reduction in blood parasite load at 150 mg/kg/day, po for 6 days per week until completion of 60 compound doses administered 5 days post infection; format: functional, organism-based
Trypanosoma cruzi [18] = assay: Antimicrobial activity against Trypanosoma cruzi Tulahuen infected in Swiss mouse assessed as mouse mortality rate at 150 mg/kg/day, po for 6 days per week until completion of 60 compound doses administered 5 days post infection; format: functional
Mus musculus [19] = assay: Toxicity in Swiss mouse infected with Trypanosoma cruzi Tulahuen assessed as occurrence of dehydration at 150 mg/kg/day, po for 6 days per week until completion of 60 compound doses administered 5 days post infection measured 2 weeks post dose; format: organism-based; design: route oral; conditions: in vivo, 336 h
Mus musculus [20] = assay: Toxicity in Swiss mouse infected with Trypanosoma cruzi Tulahuen assessed as occurrence of inactivity at 150 mg/kg/day, po for 6 days per week until completion of 60 compound doses administered 5 days post infection measured 2 weeks post dose; format: organism-based; design: route oral; conditions: in vivo, 336 h
Mus musculus [21] = assay: Toxicity in Swiss mouse infected with Trypanosoma cruzi Tulahuen assessed as occurrence of erected hair at 150 mg/kg/day, po for 6 days per week until completion of 60 compound doses administered 5 days post infection measured 2 weeks post dose; format: organism-based; design: route oral; conditions: in vivo, 336 h

O=C(Cn1ccnc1[N+](=O)[O-])NCc1ccccc1 [BENZNIDAZOLE]
Activity (Mus musculus [1]): Non-toxic
Activity (Trypanosoma cruzi [2]): Active
Activity (Trypanosoma cruzi [3]): 50%
Activity (Trypanosoma cruzi [4]): Active
Activity (Trypanosoma cruzi [5]): 33.3%
Activity (Trypanosoma cruzi [6]): 0%
Activity (Trypanosoma cruzi [7]): Active
Activity (Trypanosoma cruzi [8]): Active
Activity (Trypanosoma cruzi [9]): 0%

O=C(NCO)N/N=C/c1ccc([N+](=O)[O-])o1 [HYDROXYMETHYLNITROFURAZONE]
Activity (Trypanosoma cruzi [10]): Active
Activity (Trypanosoma cruzi [11]): Active
Activity (Trypanosoma cruzi [12]): 10%
Activity (Mus musculus [13]): Non-toxic
Activity (Trypanosoma cruzi [14]): Active
Activity (Trypanosoma cruzi [15]): 30%
Activity (Trypanosoma cruzi [16]): 0%
Activity (Trypanosoma cruzi [17]): Active
Activity (Trypanosoma cruzi [18]): 16%

NC(=O)N/N=C/c1ccc([N+](=O)[O-])o1 [NITROFURAZONE]
Activity (Trypanosoma cruzi [10]): Active
Activity (Trypanosoma cruzi [11]): Active
Activity (Trypanosoma cruzi [12]): 66.6%
Activity (Mus musculus [13]): Non-toxic
Activity (Trypanosoma cruzi [14]): Active
Activity (Mus musculus [19]): Toxic
Activity (Mus musculus [20]): Toxic
Activity (Trypanosoma cruzi [16]): 0%
Activity (Trypanosoma cruzi [17]): Active
Activity (Trypanosoma cruzi [18]): 75%
Activity (Mus musculus [21]): Toxic
